Values joined by “and” are separate entries in the source; they are usually repeats but may differ in a detail not shown here. Equal values may be shown once. Read-outs that look alike come from different tables or passages of the source.
Key:
human DP receptors [1] = molecular target: T1, human DP receptors (Homo sapiens, UniProt Q13258); test: cAMP formation assay in HEK-DP cells; assay type: cell-based; conditions: for τ' (cAMP formation) / τ (cAMP formation), operational efficacy / Kd: Black/Leff operational model; for τ' (cAMP formation): full agonists, τ' = KA' x R; for Emax: 60 min, normalized to 100 nM PGD2-stimulated cAMP as 100%; for EC50: 60 min treatment; for τ (cAMP formation), operational efficacy / Kd: partial agonists; for Kd: read-out: KA (cAMP formation), apparent affinity; for effect on DP receptors in terms of cAMP accumulation: at least up to 100 nM
T1 construct: expressed in transfected cells
T1 sequence (Q13258 1-359): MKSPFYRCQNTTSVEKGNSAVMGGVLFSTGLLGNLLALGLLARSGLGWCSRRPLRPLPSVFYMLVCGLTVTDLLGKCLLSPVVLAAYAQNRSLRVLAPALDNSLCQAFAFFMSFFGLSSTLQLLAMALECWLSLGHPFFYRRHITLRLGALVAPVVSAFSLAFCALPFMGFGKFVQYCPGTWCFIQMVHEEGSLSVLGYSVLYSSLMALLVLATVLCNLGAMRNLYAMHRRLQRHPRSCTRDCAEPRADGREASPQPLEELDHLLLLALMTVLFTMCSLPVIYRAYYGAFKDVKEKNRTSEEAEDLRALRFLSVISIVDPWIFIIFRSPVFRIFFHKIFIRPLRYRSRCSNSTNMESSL
Protocol: HEK-DP cells were cultured in 6-well plates and, prior to the experiments, the medium was switched from DMEM to Opti-MEM (Thermo Fisher Scientific) containing 250 μg/ml geneticin, 200 μg/ml hygromycin B, and 100 μg/ml gentamicin for 16 h. […] Three hundred microliters of TE buffer (50 mM Tris–HCl, 4 mM EDTA [pH 7.5]) was added, and cells were scraped and transferred to microcentrifuge tubes. Samples were boiled for 8 min, placed on ice, and then centrifuged for 1 min at 16,000g. Between 5 and 25 μl of the supernatants representing approximately 10^4 cells was added to 50 μl of TE buffer containing [^3H]cAMP (PerkinElmer Life Science) and then to 100 μl of 0.06 mg/ml PKA (Sigma–Aldrich; #P5511). The mixture was vortexed and incubated on ice for 120 min. Samples were added to 100 μl of TE buffer containing 2% of bovine serum albumin and 26 mg/ml of powdered activated charcoal (Sigma–Aldrich; #C7606). After vortexing and centrifugation at 16,000g for 5 min, 200 μl of the supernatants were transferred to vials for liquid scintillation.
(§1) The equation "operational model-partial agonist" was performed using the results presented in Figure 2, as reported previously ([20]). The basal level was 0 (Fig. 2A; cAMP) or 1 (Fig. 2B, TCF), and Hill slopes were specified as 1. […] The total responses evoked by the precursor prostanoid and its metabolites were calculated using the formula below ([23]): Response=[A1]/KA1×Tau1+[A2]/KA2×Tau2/[A1]/KA1×(Tau1+1)+[A2]/KA2×(Tau2+1)+1×EffectMax

human DP receptors [2] = molecular target: T1, human DP receptors; test: TCF/β-catenin-mediated luciferase reporter assay in HEK-DP cells; assay type: cell-based; conditions: for EC50 / Emax (fold), β-catenin/TCF-mediated luciferase activity / Emax / effect on DP receptor-mediated activation of TCF/β-catenin signaling: HEK-DP cells; for EC50: 16 h treatment; for τ (TCF transcriptional activity), operational efficacy / Kd: Black/Leff operational model, partial agonists; for Kd: read-out: KA (TCF transcriptional activity), apparent affinity; for Emax (fold), β-catenin/TCF-mediated luciferase activity / Emax: 16 h; for Emax (fold), β-catenin/TCF-mediated luciferase activity: vehicle-treated control as 1.0; for Emax: read-out: Emax of TCF/β-catenin activity as % of the PGD2 value; for effect on DP receptor-mediated activation of TCF/β-catenin signaling: up to 100 nM
Protocol: HEK-DP cells were cultured in 6-well plates and, prior to the experiments, medium was switched to Opti-MEM for 16 h with antibiotics, as stated previously. Cells were transiently transfected using HyliMax reagent (Dojindo) with 400 ng/well of either TOP flash or FOP flash reporter plasmids and 2 ng/well of pRL-CMV plasmid (Promega), as described previously ([20]). […] Cells were then lysed and assayed using a dual luciferase reporter assay system (Promega) according to the manufacturer's instructions with TECAN infinite M200 (TECAN). Data were normalized by calculating the ratios of firefly luciferase values to corresponding renilla luciferase scores and corrected for background activity by subtracting FOP flash scores from the corresponding TOP flash values, as described previously ([20]).
as §1

human DP receptors [3] = molecular target: T1, human DP receptors; test: competitive whole-cell [^3H]PGD2 radioligand binding assay in HEK-DP cells; conditions: for binding to DP receptors / competition with [^3H]PGD2: at least to a concentration of 100 nM (data not shown)
Protocol: The medium of HEK-DP cells cultured in 10-cm dishes was switched from DMEM containing 10% fetal bovine serum to Opti-MEM at 37 °C for 16 h containing antibiotics, as stated previously. Cells were trypsinized and then resuspended at 1.0 x 10^6 cells/sample in 100 μl of ice-cold 10 mM HEPES buffer (pH 7.4) containing 1 mM EDTA and 10 mM MnCl2 (Sigma–Aldrich). […] Samples were incubated for 2 h at 4 °C, and then the assay was terminated by filtration through Whatman GF/C glass filters (Whatman). Filters were then washed three to five times with ice-cold HEPES buffer, and radioactivity was measured by liquid scintillation counting ([20]).

platelets = test system: platelets; design: method as in PMID 17452035; conditions: collagen-induced platelet aggregation; cited from earlier work
[4] = cited from earlier work

| SMILES | τ' (cAMP formation) (human DP receptors [1]) | Emax (human DP receptors [1]; HEK-DP cells) | EC50 (human DP receptors [1]; HEK-DP cells) | EC50 (human DP receptors [2]) | IC50 (human DP receptors [3]) | τ (cAMP formation), operational efficacy (human DP receptors [1]) | Kd (human DP receptors [1]) | τ (TCF transcriptional activity), operational efficacy (human DP receptors [2]) | Kd (human DP receptors [2]) | Emax (fold), β-catenin/TCF-mediated luciferase activity (human DP receptors [2]) | Emax (human DP receptors [2]) | effect on DP receptors in terms of cAMP accumulation (human DP receptors [1]; HEK-DP cells) | effect on DP receptor-mediated activation of TCF/β-catenin signaling (human DP receptors [2]) | binding to DP receptors / competition with [^3H]PGD2 (human DP receptors [3]) | also measured |
| --- | --- | --- | --- | --- | --- | --- | --- | --- | --- | --- | --- | --- | --- | --- | --- |
| CCCCCC(O)CC=C1C(=O)C=CC1CC=CCCCC(=O)O (stereo not shown) [Δ^12-PGJ2] | – | ~67% | ~28.9 nM and 28.9 nM | 8.96 nM | – | 4.08 | 117 nM | 2.44 | 29.8 nM | 2.21 fold | ~70% | – | – | – | – |
| CCCCC/C=C\C=C1\C(=O)C=C[C@@H]1C/C=C\CCCC(=O)O [15-d-PGJ2, 15-deoxy-Δ^12,14-PGJ2] | – | – | – | – | – | – | – | – | – | – | – | little effects | little effect | could not bind to DP receptors | – |
| CCCCC/C=C/C=C1/C(=O)C[C@H](O)[C@@H]1C/C=C\CCCC(=O)O [15-d-PGD2, 15-deoxy-Δ^12,14-PGD2] | – | – | – | – | – | – | – | – | – | – | – | little effects | little effect | could not bind to DP receptors | – |
| CCCCCC(=O)CC[C@H]1C(=O)C[C@H](O)[C@@H]1C/C=C\CCCC(=O)O [DK-PGD2, 13,14-dihydro-15-keto PGD2] | – | ~14% | ~62.4 nM and 62.4 nM | 34.7 nM | – | 0.17 | 15 nM | 0.21 | 18.9 nM | about 1.28 fold | ~40% | – | – | – | – |

Now from value to molecule, other results behind:

| τ' (cAMP formation) (human DP receptors [1]) | Emax (human DP receptors [1]; HEK-DP cells) | EC50 (human DP receptors [1]; HEK-DP cells) | EC50 (human DP receptors [2]) | IC50 (human DP receptors [3]) | τ (cAMP formation), operational efficacy (human DP receptors [1]) | Kd (human DP receptors [1]) | τ (TCF transcriptional activity), operational efficacy (human DP receptors [2]) | Kd (human DP receptors [2]) | Emax (fold), β-catenin/TCF-mediated luciferase activity (human DP receptors [2]) | Emax (human DP receptors [2]) | effect on DP receptors in terms of cAMP accumulation (human DP receptors [1]; HEK-DP cells) | effect on DP receptor-mediated activation of TCF/β-catenin signaling (human DP receptors [2]) | binding to DP receptors / competition with [^3H]PGD2 (human DP receptors [3]) | SMILES | also measured |
| --- | --- | --- | --- | --- | --- | --- | --- | --- | --- | --- | --- | --- | --- | --- | --- |
| 86.76 | 102 ± 20.2% | ~0.05 nM and 0.0513 nM | ~0.08 nM and 0.0758 nM | 5.11 nM | – | – | – | – | – | – | – | – | – | CCCCC[C@H](O)/C=C/[C@H]1C(=O)C=C[C@@H]1C/C=C\CCCC(=O)O [PGJ2, prostaglandin J2] | time-dependent cAMP formation compared with PGD2, with IBMX pretreatment (human DP receptors [1]; HEK-DP cells, 0.3 nM ligand, 0.1 mg/ml IBMX for 25 min): significantly more cAMP from 5 to 60 min compared with PGD2; time-dependent cAMP formation compared with PGD2, without IBMX pretreatment (human DP receptors [1]; HEK-DP cells, 0.3 nM ligand, no IBMX): significantly form more cAMP from 10 to 30 min compared with PGD2; potency of inhibiting platelet aggregation, times lower than that of PGD2 (platelets): 13 times |
| 11.48 | 100% | ~0.3 nM and 0.301 nM | ~0.08 nM and 0.0892 nM | 2.48 nM | – | – | – | – | – | – | – | – | – | CCCCC[C@H](O)/C=C/[C@H]1C(=O)C[C@H](O)[C@@H]1C/C=C\CCCC(=O)O [PGD2, Prostaglandin D2] | half-life in blood ([4]; blood): 0.9 min; half-life in plasma ([4]; plasma): 30 min; half-life in blood ([4]; printed as blood): 30 min |

From publication PMC12145828 (The Journal of Biological Chemistry, 2025)
